Common to all, as to assay type: cell-based
The target in one assay is T1, EP4 (Homo sapiens, UniProt P35408).
T1 construct: BT549 breast cancer cells, express high endogenous EP4 levels and very low EP2 levels; host or cells: BT549 breast cancer cells
Description: hEP4 cAMP Assay (BT549 breast cancer cells, HTRF cAMP, PGE2 6 nM). Conditions: antagonistic activity, PGE2 6 nM (EC80). The method, boiled down:
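BT549 cells (endogenous EP4, very low EP2) in HBSS/20 mM HEPES/0.2% BSA/2 mM IBMX, pre-incubated 45 min RT with compound, then stimulated 30 min RT with PGE2 6 nM (EC80). cAMP read by HTRF competitive immunoassay (665/620 nm), converted via calibrator to % of DMSO control; IC50 from duplicate dose-response curves.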
In general terms: Time-resolved FRET reads energy transfer from a long-lived donor to a nearby acceptor.

For the next assay, the target named is T2, EP2 (Homo sapiens, UniProt P43116).
T2 construct: SF295 glioblastoma cells express high endogenous EP2 and no EP4; host or cells: SF295 glioblastoma cells
T2 sequence (P43116 whole entry): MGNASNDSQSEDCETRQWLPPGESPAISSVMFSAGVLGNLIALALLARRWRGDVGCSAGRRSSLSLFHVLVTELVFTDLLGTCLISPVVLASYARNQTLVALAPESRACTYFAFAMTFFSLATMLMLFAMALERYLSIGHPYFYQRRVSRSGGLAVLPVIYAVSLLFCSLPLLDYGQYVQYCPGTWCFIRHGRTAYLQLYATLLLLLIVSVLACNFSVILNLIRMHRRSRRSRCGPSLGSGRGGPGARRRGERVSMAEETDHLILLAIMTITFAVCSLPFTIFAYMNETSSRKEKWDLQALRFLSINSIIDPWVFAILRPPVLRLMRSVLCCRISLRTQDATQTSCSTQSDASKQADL
Description: hEP2 cAMP Assay (SF295 glioblastoma cells, HTRF cAMP, PGE2 75 nM). As to conditions: antagonistic activity, PGE2 75 nM (EC80). The method, boiled down:
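IC50 values derive from duplicate-point curves of percent cAMP relative to DMSO, read by HTRF (665/620 nm) against a cAMP calibrator. Compounds (30 μM to 0.01 nM ranges) were given 45 min at room temperature before 30 min with 75 nM PGE2, in EP2-only SF295 cells with 2 mM IBMX.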

The target of the next assay is T3, PTGER4 (EP4) (Homo sapiens, UniProt P35408).
T3 construct: host or cells: HEK 293 (PathHunter, stably transfected)
T3 sequence (P35408 whole entry): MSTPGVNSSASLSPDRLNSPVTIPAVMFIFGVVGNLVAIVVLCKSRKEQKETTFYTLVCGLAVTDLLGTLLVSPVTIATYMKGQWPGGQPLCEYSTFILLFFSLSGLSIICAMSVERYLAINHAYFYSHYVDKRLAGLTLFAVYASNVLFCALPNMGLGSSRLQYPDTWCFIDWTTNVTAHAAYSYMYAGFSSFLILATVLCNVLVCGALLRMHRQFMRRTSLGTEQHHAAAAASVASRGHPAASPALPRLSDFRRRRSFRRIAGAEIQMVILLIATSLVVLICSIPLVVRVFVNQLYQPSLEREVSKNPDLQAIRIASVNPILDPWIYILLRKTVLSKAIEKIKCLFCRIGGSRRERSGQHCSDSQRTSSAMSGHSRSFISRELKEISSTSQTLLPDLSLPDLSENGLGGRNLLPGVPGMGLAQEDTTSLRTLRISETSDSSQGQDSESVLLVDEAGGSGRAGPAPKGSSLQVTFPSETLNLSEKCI
Description: hEP4 b-Arrestin Assay (PathHunter HEK 293 PTGER4 b-arrestin cells, PGE2 20 nM). As to conditions: antagonistic activity, beta-arrestin assay, HEK 293 PTGER4 cells, PGE2 20 nM (EC80); read-out: hEP4 b-arr IC50. As to the method: The antagonistic activities of the compounds of formula (I) on the EP2 and EP4 receptors are also determined in accordance with the following experimental method.
The assay is using the PathHunter™ HEK 293 PTGER2 and PTGER4 b-arrestin cell lines from DiscoverX. The system is based on the Enzyme Fragment Complementation Technology. Two complementing fragments of the b-galactosidase enzyme are expressed within stably transfected cells. The larger portion of b-gal, termed EA for Enzyme Acceptor, is fused to the C-terminus of b-arrestin 2. The smaller fragment, termed ProLink™ tag, is fused to PTGER2 (EP2) or PTRGER4 (EP4) at the C-terminus. Upon activation, b-arrestin is recruited which forces the interaction of ProLink and EA, allowing complementation of the two fragments of b-gal and the formation of a functional enzyme which is capable of hydrolysing the substrate and generating a chemiluminescent signal.
The HEK 293 PTGER4 b-arrestin cells (DiscoverX 93-030-4C1) are detached from culture dishes with a cell dissociation buffer (Invitrogen, 13151-014), and collected in growing medium (GM: DMEM+Glutamax-I (Invitrogen 32430)/10% FCS, 1% Penicilin/streptomycin). 5000 cells per well of a 384 well plate (white with white bottom Greiner 781080) are seeded in 20 ul per well of GM. Plate is incubated at 37° C., 5% CO2 for 24 hours.
Stock solutions of test compounds are made at a concentration of 10 mM in DMSO, and serially diluted in DMSO to concentrations required for inhibition dose response curves (tested concentration range 10 μM-2 nM or 1 μM-0.2 nM).
PGE2 (Cayman 14010, stock solution: 100 μM in DMSO) is used as agonist at 20 nM final concentration, corresponding to EC80.
Five microliters of diluted compounds are transferred into the assay plate. Plate is pre-incubated 15 minutes at 37° C. Then five microliters of PGE2 (final conc. 20 nM) are transferred into the assay plate. Plate is incubated 120 minutes at 37° C.
PathHunter Glo Detection Kit components are thawed and mix according to manufacturer's instructions: 1 part Galacton Star Substrate with 5 parts Emerald II™ Solution, and 19 parts of PathHunter Cell Assay Buffer, respectively. Twelve μl of reagent are transferred to the assay plate and incubate for 1 hour at room temperature in the dark. Luminescence counts are read on a BMG Fluostar Optima reader according to manufacturer's instructions.
For each compound concentration calculate of the percentage of activity compared to DMSO control value as average ±STDEV. (each concentration is measured in duplicate)
IC50 values and curves are generated with XLfit software (IDBS) using Dose-Response One Site model 203. When compounds were measured multiple times, mean values are given.

The target in the next assay is T4, PTGER2 (EP2) (Homo sapiens, UniProt P43116).
T4 construct: host or cells: HEK 293 (PathHunter, stably transfected)
T4 sequence (P43116 whole entry): as the sequence (P43116 whole entry) above
Description: hEP2 b-Arrestin Assay (PathHunter HEK 293 PTGER2 b-arrestin cells, PGE2 5 μM). As to conditions: antagonistic activity, beta-arrestin assay, HEK 293 PTGER2 cells, PGE2 5 μM (EC80); read-out: hEP2 b-arr IC50. The method, boiled down:
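PathHunter enzyme-fragment complementation in HEK 293 cells: compounds (10 μM-2 nM or 1 μM-0.2 nM) pre-incubated 15 min at 37 °C, then 5 μM PGE2 (EC80) for 120 min at 37 °C. Chemiluminescence read after 1 h detection; IC50 from duplicate dose-response fits, means of repeats.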

T1 sequence (P35408 whole entry): as the sequence (P35408 whole entry) above

`CCOc1cc(-c2cc(NCCc3c(OC)ccc4ccccc34)ncn2)sc1/C=C/C(=O)O` [Example 118, (E)-3-(3-Ethoxy-5-{6-[2-(2-methoxy-naphthalen-1-yl)-ethylamino]-pyrimidin-4-yl}-thiophen-2-yl)-acrylic acid]: the IC50 on EP4 is 55 nM; against EP2, 94 nM; at PTGER4 (EP4), 12 nM; at PTGER2 (EP2), 11 nM.
For `CCOc1cc(-c2cc(NCCc3cccc4ncccc34)ncn2)sc1-c1noc(=O)[nH]1` [Example 188, 3-{3-Ethoxy-5-[6-(2-quinolin-5-yl-ethylamino)-pyrimidin-4-yl]-thiophen-2-yl}-[1,2,4]oxadiazol-5(4H)-one], the half-inhibitory concentration (IC50) came to 22 nM against EP4, 324 nM on EP2, 282 nM at PTGER4 (EP4) and 59 nM on PTGER2 (EP2).
In the case of `Cn1ccc2c(CCNc3cc(-c4ccc(C(=O)O)c(OC5CCC5)c4)ncn3)cccc21` [Example 159, 2-Cyclobutoxy-4-{6-[2-(1-methyl-1H-indol-4-yl)-ethylamino]-pyrimidin-4-yl}-benzoic acid], the IC50 at EP4 amounted to 1050 nM; against EP2, 110 nM; on PTGER4 (EP4) it was 864 nM; at PTGER2 (EP2) it was 44 nM.
On the same counts, the results for `CCOc1nc(-c2cc(NCCc3c(OC)ccc4ccccc34)ncn2)sc1-c1noc(=O)[nH]1` [Example 149, 3-(4-Ethoxy-2-{6-[2-(2-methoxy-naphthalen-1-yl)-ethylamino]-pyrimidin-4-yl}-thiazol-5-yl)-[1,2,4]oxadiazol-5(4H)-one] are 52 nM, 15 nM, 6 nM and 5 nM.
Consider `CCOc1cc(-c2cc(NCCc3c(OC)c(OC)cc4ccccc34)ncn2)sc1C(=O)O` [Example 14, 5-{6-[2-(2,3-Dimethoxy-naphthalen-1-yl)-ethylamino]-pyrimidin-4-yl}-3-ethoxy-thiophene-2-carboxylic acid], for which the half-inhibitory concentration (IC50) was 24 nM against EP4, 77 nM on EP2, 17 nM on PTGER4 (EP4) and 28 nM at PTGER2 (EP2).
`COc1ccc2c(c1CCNc1cc(-c3cc(C(F)(F)F)c(C(=O)O)s3)ncn1)CCCN2C` [Example 154, 5-{6-[2-(6-Methoxy-1-methyl-1,2,3,4-tetrahydro-quinolin-5-yl)-ethylamino]-pyrimidin-4-yl}-3-trifluoromethyl-thiophene-2-carboxylic Acid]: the half-maximal inhibitory concentration (IC50) against EP4 worked out at 177 nM; against EP2 it was 144 nM; on PTGER4 (EP4) it was 125 nM; on PTGER2 (EP2), 57 nM.
`COc1ccc2ccccc2c1CCNc1cc(-c2ccc(C(=O)O)c(OC(F)F)c2)ncn1` [Example 128, 2-Difluoromethoxy-4-{6-[2-(2-methoxy-naphthalen-1-yl)-ethylamino]-pyrimidin-4-yl}-benzoic acid]: the IC50 was 250 nM against EP4, 3 nM against EP2, 291 nM on PTGER4 (EP4) and 10 nM on PTGER2 (EP2).
For `CCOc1cc(-c2cc(NCCc3cccc4cc[nH]c34)ncn2)sc1-c1noc(=O)[nH]1` [Example 143, 3-(3-Ethoxy-5-{6-[2-(1H-indol-7-yl)-ethylamino]-pyrimidin-4-yl}-thiophen-2-yl)-[1,2,4]oxadiazol-5(4H)-one], the IC50 stood at 105 nM against EP4, 90 nM against EP2, 21 nM at PTGER4 (EP4) and 31 nM at PTGER2 (EP2).
Take `CCc1nc(-c2cc(NCCc3c(OC)ccc4ccccc34)ncn2)sc1-c1noc(=O)[nH]1` [Example 190, 3-(4-Ethyl-2-{6-[2-(2-methoxy-naphthalen-1-yl)-ethylamino]-pyrimidin-4-yl}-thiazol-5-yl)-[1,2,4]oxadiazol-5(4H)-one]: the IC50 worked out at 1250 nM on EP4, 8 nM on EP2, 34 nM on PTGER4 (EP4) and 13 nM on PTGER2 (EP2).
For the compound `CCOc1cc(-c2cc(NCCc3cccc4[nH]ccc34)ncn2)sc1C(=O)O` [Example 39, 3-Ethoxy-5-{6-[2-(1H-indol-4-yl)-ethylamino]-pyrimidin-4-yl}-thiophene-2-carboxylic acid], the IC50 against EP4 came to 101 nM; at EP2, 50 nM; on PTGER4 (EP4), 386 nM; at PTGER2 (EP2), 81 nM.
Regarding `CCOc1cc(-c2cc(NCCc3cccc4c(C)cccc34)ncn2)ccc1CC(=O)O` [Example 164, (2-Ethoxy-4-{6-[2-(5-methyl-naphthalen-1-yl)-ethylamino]-pyrimidin-4-yl}-phenyl)-acetic acid], the IC50 on EP4 was determined as 110 nM; against EP2 it was 130 nM; at PTGER4 (EP4) it was 181 nM; on PTGER2 (EP2), 44 nM.
Turning to `CCOc1cc(-c2cc(NCCc3c(OC)ccc4ccccc34)ncn2)ccc1-c1nnn[nH]1` [Example 125, {6-[3-Ethoxy-4-(1H-tetrazol-5-yl)-phenyl]-pyrimidin-4-yl}-[2-(2-methoxy-naphthalen-1-yl)-ethyl]amine], the IC50 stood at 29 nM on EP4, 24 nM at EP2, 29 nM at PTGER4 (EP4) and 8 nM at PTGER2 (EP2).
Regarding `CCOc1cc(-c2cc(NCCc3ccc(Cl)c4ccccc34)ncn2)sc1C(=O)O` [Example 62, 5-{6-[2-(4-Chloro-naphthalen-1-yl)-ethylamino]-pyrimidin-4-yl}-3-ethoxy-thiophene-2-carboxylic acid], the half-maximal inhibitory concentration (IC50) at EP4 amounted to 29 nM; against EP2, 24 nM; on PTGER4 (EP4), 19 nM; on PTGER2 (EP2), 32 nM.
Consider `COc1ccc2ccc(F)c(CCNc3cc(-c4cc(C(F)(F)F)c(C(=O)O)s4)ncn3)c2n1` [Example 151, 5-{6-[2-(7-Fluoro-2-methoxy-quinolin-8-yl)-ethylamino]-pyrimidin-4-yl}-3-trifluoromethyl-thiophene-2-carboxylic acid], for which the half-inhibitory concentration (IC50) was 228 nM against EP4, 214 nM against EP2, 478 nM on PTGER4 (EP4) and 414 nM at PTGER2 (EP2).
On the same counts, the results for `COc1ccc2ccccc2c1CCNc1cc(-c2ccc(C(=O)O)c(OCCO)c2)ncn1` [Example 155, 2-(2-Hydroxy-ethoxy)-4-{6-[2-(2-methoxy-naphthalen-1-yl)-ethylamino]-pyrimidin-4-yl}-benzoic acid] are 296 nM, 16 nM, 2230 nM and 45 nM.
With `CCOc1cc(-c2cc(NCCc3ccc(F)c4ccccc34)ncn2)sc1C(=O)O` [Example 21, 3-Ethoxy-5-{6-[2-(4-fluoro-naphthalen-1-yl)-ethylamino]-pyrimidin-4-yl}-thiophene-2-carboxylic acid], the IC50 was found to be 62 nM at EP4, 16 nM on EP2, 77 nM on PTGER4 (EP4) and 32 nM on PTGER2 (EP2).
On the same counts, the results for `CCOc1cc(-c2cc(NCCc3ccc(C#N)c4ccccc34)ncn2)sc1C(=O)O` [Example 69, 5-{6-[2-(4-Cyano-naphthalen-1-yl)-ethylamino]-pyrimidin-4-yl}-3-ethoxy-thiophene-2-carboxylic acid] are 66 nM, 79 nM, 48 nM and 78 nM.

In general, IC50 refers to the concentration that gives 50% inhibition.
